The record followed here is US12060347B2 (BRISTOL-MYERS SQUIBB COMPANY, priority 2016, dated 2024).

The target in the assay is T1, human PAR4 (Homo sapiens, UniProt Q96RI0).
T1 construct: expressed in transfected cells; host or cells: HEK293 PAR4 Clone 1.2A (BMS Arctic ID 383940)
T1 sequence (Q96RI0 18-385): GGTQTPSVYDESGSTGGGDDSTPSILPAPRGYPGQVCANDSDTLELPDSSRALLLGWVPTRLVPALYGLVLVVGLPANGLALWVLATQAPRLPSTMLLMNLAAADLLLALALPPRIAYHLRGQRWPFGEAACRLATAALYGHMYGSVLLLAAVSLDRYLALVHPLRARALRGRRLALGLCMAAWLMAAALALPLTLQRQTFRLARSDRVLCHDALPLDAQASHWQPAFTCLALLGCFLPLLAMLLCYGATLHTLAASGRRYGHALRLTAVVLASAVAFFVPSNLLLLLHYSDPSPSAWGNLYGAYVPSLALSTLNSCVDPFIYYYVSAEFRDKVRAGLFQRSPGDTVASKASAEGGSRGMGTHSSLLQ
The assay is described as follows: PAR4 FLIPR assay: antagonism of agonist-peptide-induced calcium mobilization in PAR4-expressing HEK293 cells. The format is cell-based. As to conditions: H-Ala-Phe(4-F)-[…]NH2-induced intracellular calcium mobilization, 11-point curves.

In the case of `COCc1cnc2c(-c3nc4c(C)c(C)c(OC(C)C(C)O)cc4s3)cc(C)cc2n1` (mixture of isomers) [Example 323, 3-((2-(2-(methoxymethyl)-7-methylquinoxalin-5-yl)-4,5-dimethylbenzo[d]thiazol-6-yl)oxy)butan-2-ol], the concentration for half-maximal inhibition (IC50) worked out at 15 nM.

As to `COCc1cnc2c(-c3nc4c(C)c(C)c(OC(C)CO)cc4s3)cc(C)cc2n1` (racemic) [Example 321, 2-((2-(2-(methoxymethyl)-7-methylquinoxalin-5-yl)-4,5-dimethylbenzo[d]thiazol-6-yl)oxy)propan-1-ol], the 50% inhibitory concentration (IC50) is 3.1 nM.

`COCc1cnc2c(-c3nc4c(C)c(C)c(OCC(C)O)cc4s3)cc(C)cc2n1` (racemic) [Example 322, 1-((2-(2-(methoxymethyl)-7-methylquinoxalin-5-yl)-4,5-dimethylbenzo[d]thiazol-6-yl)oxy)propan-2-ol]: the 50% inhibitory concentration (IC50) stood at 5.1 nM.

As for `COCc1cnc2c(-c3nc4c(C(O)C(C)(C)C)c(C)c(OC)cc4s3)cc(C)cc2n1` (racemic) [Example 328, 1-(6-methoxy-2-(2-(methoxymethyl)-7-methylquinoxalin-5-yl)-5-methylbenzo[d]thiazol-4-yl)-2,2-dimethylpropan-1-ol], the IC50 worked out at 1.4 nM.

Take `COc1ccc(NC(=O)OCC(C)Oc2cc3sc(-c4cc(C)cc5nc(OC)cnc45)nc3c(Cl)c2F)cn1` (racemic) [Example 381, 2-((4-chloro-5-fluoro-2-(2-methoxy-7-methylquinoxalin-5-yl)benzo[d]thiazol-6-yl)oxy)propyl (6-methoxypyridin-3-yl)carbamate]: the IC50 was found to be 1.4 nM.

`COCC(COc1cc2sc(-c3cc(C)cc4nc(OC)cnc34)nc2cc1F)OC(=O)Nc1cccnc1` (racemic) [Example 516, 1-((5-fluoro-2-(2-methoxy-7-methylquinoxalin-5-yl)benzo[d]thiazol-6-yl)oxy)-3-methoxypropan-2-yl pyridin-3-ylcarbamate (rac)]: the IC50 amounted to 2 nM.

As to `COc1cnc2c(-c3nc4cc(F)c(OCC(COCC(C)C)OC(=O)Nc5cnc(C)nc5)cc4s3)cc(C)cc2n1` (racemic) [Example 525, 1-((5-fluoro-2-(2-methoxy-7-methylquinoxalin-5-yl)benzo[d]thiazol-6-yl)oxy)-3-isobutoxypropan-2-yl (2-methylpyrimidin-5-yl)carbamate (rac)], the IC50 is 2.3 nM.

Regarding `COCc1cnc2c(-c3nc4c(C(O)c5ccccc5)cc(OC)cc4s3)cc(C)cc2n1` (single isomer, unassigned) [Example 163, (6-methoxy-2-(2-(methoxymethyl)-7-methylquinoxalin-5-yl)benzo[d]thiazol-4-yl)(phenyl)methanol], the IC50 turned out to be 0.5 nM.

For `COCc1cnc2c(-c3nc4c(C(O)C(C)(C)C)cc(OC)cc4s3)cc(C)cc2n1` (single isomer, unassigned) [Example 164, 1-(6-methoxy-2-(2-(methoxymethyl)-7-methylquinoxalin-5-yl)benzo[d]thiazol-4-yl)-2,2-dimethylpropan-1-ol], the IC50 was 0.5 nM.

For `[2H]C(O)(c1cc(OC)cc2sc(-c3cc(C)cc4nc(COC)cnc34)nc12)C(C)(C)C` (single isomer, unassigned) [Example 169, 1-(6-methoxy-2-(2-(methoxymethyl)-7-methylquinoxalin-5-yl)benzo[d]thiazol-4-yl)-2,2-dimethylpropan-1-ol-1-d1], the IC50 worked out at 0.4 nM.

Turning to `[2H]C([2H])([2H])OC([2H])([2H])c1cnc2c(-c3nc4c(C(O)C(C)(C)C)cc(OC)cc4s3)cc(C)cc2n1` (single isomer, unassigned) [Example 170, 1-(6-methoxy-2-(2-(methoxymethyl)-7-methylquinoxalin-5-yl)benzo[d]thiazol-4-yl)-2,2-dimethylpropan-1-ol-d5], the IC50 is 0.3 nM.

Consider `COc1ccc(NC(=O)OC[C@H](C)Oc2cc3sc(-c4cc(C)cc5nc(OC)cnc45)nc3c(Cl)c2F)cn1` (single isomer, unassigned) [Example 382], for which the IC50 amounted to 1.3 nM.

For `COc1cc(C(O)C(F)(F)F)c2nc(-c3cc(C)cc4nc(OC)cnc34)sc2c1` (single isomer, unassigned) [Example 633, 2,2,2-trifluoro-1-(6-methoxy-2-(2-methoxy-7-methylquinoxalin-5-yl)benzo[d]thiazol-4-yl)ethanol], the IC50 is 2.6 nM.

In the case of `COc1cc(C(O)C2(C(F)(F)F)CCC2)c2nc(-c3cc(C)cc4nc(OC)cnc34)sc2c1` (single isomer, unassigned) [Example 664], the IC50 was found to be 0.9 nM.

As for `COc1cnc2c(-c3nc4cc(F)c(O[C@@H](C)[C@@H](C)OC(=O)Nc5ccc(C(C)O)nc5)nc4s3)cc(C)cc2n1` (single isomer, unassigned) [Example 766], the IC50 came to 2.9 nM.

For `COc1cnc2c(-c3nc4cc(F)c(O[C@@H](C)[C@@H](C)OC(=O)Nc5ccc(C(C)O)nc5)nc4s3)cc(C)cc2n1` (single isomer, unassigned) [Example 767], the IC50 was 3.4 nM.

In the case of `COc1cnc2c(-c3nc4cc(F)c(O[C@@H](C)[C@@H](C)OC(=O)Nc5ccc(C(N)=O)nc5)cc4s3)cc(C)cc2n1` (stereo in doubt) [Example 391, (2R,3S)-3-((5-fluoro-2-(2-methoxy-7-methylquinoxalin-5-yl)benzo[d]thiazol-6-yl)oxy)butan-2-yl (6-carbamoylpyridin-3-yl)carbamate], the IC50 stood at 2 nM.

Consider `COc1cnc2c(-c3nc4cc(F)c(O[C@@H](C)[C@@H](C)OC(=O)Nc5ccc(C(=O)NCCO)nc5)cc4s3)cc(C)cc2n1` (stereo in doubt) [Example 392, (2R,3S)-3-((5-fluoro-2-(2-methoxy-7-methylquinoxalin-5-yl)benzo[d]thiazol-6-yl)oxy)butan-2-yl (6-((2-hydroxyethyl)carbamoyl)pyridin-3-yl)carbamate], for which the IC50 came to 3.1 nM.

As to `CNC(=O)c1cnc2c(-c3nc4cc(F)c(O[C@@H](C)[C@@H](C)OC(=O)Nc5cnc(C)nc5)cc4s3)cc(C)cc2n1` (stereo in doubt) [Example 393, (2R,3S)-3-((5-fluoro-2-(7-methyl-2-(methylcarbamoyl)quinoxalin-5-yl)benzo[d]thiazol-6-yl)oxy)butan-2-yl (2-methylpyrimidin-5-yl)carbamate], the IC50 turned out to be 30 nM.

For `Cc1cc(-c2cc3ccccc3o2)c2ncc(OC(F)F)nc2c1` [Example 1, 5-(benzofuran-2-yl)-2-(difluoromethoxy)-7-methylquinoxaline], the IC50 was found to be 29 nM.

As for `COc1ccc2oc(-c3cc(C)cc4nc(OC(F)F)cnc34)cc2c1` [Example 2, 2-(difluoromethoxy)-5-(5-methoxybenzofuran-2-yl)-7-methylquinoxaline], the IC50 was 11 nM.

Take `Cc1cc(-c2nc3ccccc3o2)c2ncc(OC(F)F)nc2c1` [Example 3, 2-(2-(difluoromethoxy)-7-methylquinoxalin-5-yl)benzo[d]oxazole]: the IC50 stood at 240 nM.

In the case of `Cc1cc(-c2nc3ccccc3s2)c2ncc(OC(F)F)nc2c1` [Example 4, 2-(2-(difluoromethoxy)-7-methylquinoxalin-5-yl)benzo[d]thiazole], the IC50 came to 17 nM.

In the case of `Cc1cc(-c2cc3ccccc3[nH]2)c2ncc(OC(F)F)nc2c1` [Example 5, 2-(difluoromethoxy)-5-(1H-indol-2-yl)-7-methylquinoxaline], the IC50 worked out at 880 nM.

Regarding `COc1ccc2oc(-c3cc(C)cc4nc(OC(F)F)cnc34)cc2c1OC` [Example 6, 2-(difluoromethoxy)-5-(4,5-dimethoxybenzofuran-2-yl)-7-methylquinoxaline], the IC50 came to 130 nM.

`Cc1cc(-c2nc3ccc(OCc4ccccc4)cc3s2)c2ncc(OC(F)F)nc2c1` [Example 7, 6-(benzyloxy)-2-(2-(difluoromethoxy)-7-methylquinoxalin-5-yl)benzo[d]thiazole]: the IC50 came to 800 nM.

Regarding `Cc1cc(-c2nc3c(Cl)cccc3s2)c2ncc(OC(F)F)nc2c1` [Example 8, 4-chloro-2-(2-(difluoromethoxy)-7-methylquinoxalin-5-yl)benzo[d]thiazole], the IC50 was 8.1 nM.

Consider `Cc1cc(-c2nc3ncccc3s2)c2ncc(OC(F)F)nc2c1` [Example 9, 2-(2-(difluoromethoxy)-7-methylquinoxalin-5-yl)thiazolo[4,5-b]pyridine], for which the IC50 was 220 nM.

As for `COc1cc(C)c2nc(-c3cc(C)cc4nc(OC(F)F)cnc34)sc2c1` [Example 10, 2-(2-(difluoromethoxy)-7-methylquinoxalin-5-yl)-6-methoxy-4-methylbenzo[d]thiazole], the IC50 turned out to be 2.2 nM.

For `Cc1cc(-c2nc3c(s2)CN(C(=O)OC(C)(C)C)CC3)c2ncc(OC(F)F)nc2c1` [Example 11, tert-butyl 2-(2-(difluoromethoxy)-7-methylquinoxalin-5-yl)-6,7-dihydrothiazolo[5,4-c]pyridine-5(4H)-carboxylate], the IC50 came out at 1700 nM.

In the case of `COc1ccc(C)c2nc(-c3cc(C)cc4nc(OC(F)F)cnc34)sc12` [Example 12, 2-(2-(difluoromethoxy)-7-methylquinoxalin-5-yl)-7-methoxy-4-methylbenzo[d]thiazole], the IC50 came out at 2 nM.

In the case of `COc1c(F)cc(F)c2nc(-c3cc(C)cc4nc(OC(F)F)cnc34)sc12` [Example 13, 2-(2-(difluoromethoxy)-7-methylquinoxalin-5-yl)-4,6-difluoro-7-methoxybenzo[d]thiazole], the IC50 turned out to be 3.5 nM.

Regarding `Cc1cc(-c2nc3cccc(NC(=O)OC(C)(C)C)c3s2)c2ncc(OC(F)F)nc2c1` [Example 14, tert-butyl (2-(2-(difluoromethoxy)-7-methylquinoxalin-5-yl)benzo[d]thiazol-7-yl) carbamate], the IC50 was found to be 6.8 nM.
